What is called Ki is a dissociation constant, usually derived from enzyme kinetics or from competition with a known ligand.

Entries after “also recorded” stand apart in the source; their conditions may differ. Like-named read-outs stand apart in the source and are kept apart here.

For data set [1], the target named is T1, norepinephrine transporter (Rattus norvegicus, UniProt Q63380).
T1 construct: in rat cortical and striatal homogenates; from tissue; host or cells: rat brain, striatal and cortical homogenates/membranes
T1 sequence (Q63380 1-617): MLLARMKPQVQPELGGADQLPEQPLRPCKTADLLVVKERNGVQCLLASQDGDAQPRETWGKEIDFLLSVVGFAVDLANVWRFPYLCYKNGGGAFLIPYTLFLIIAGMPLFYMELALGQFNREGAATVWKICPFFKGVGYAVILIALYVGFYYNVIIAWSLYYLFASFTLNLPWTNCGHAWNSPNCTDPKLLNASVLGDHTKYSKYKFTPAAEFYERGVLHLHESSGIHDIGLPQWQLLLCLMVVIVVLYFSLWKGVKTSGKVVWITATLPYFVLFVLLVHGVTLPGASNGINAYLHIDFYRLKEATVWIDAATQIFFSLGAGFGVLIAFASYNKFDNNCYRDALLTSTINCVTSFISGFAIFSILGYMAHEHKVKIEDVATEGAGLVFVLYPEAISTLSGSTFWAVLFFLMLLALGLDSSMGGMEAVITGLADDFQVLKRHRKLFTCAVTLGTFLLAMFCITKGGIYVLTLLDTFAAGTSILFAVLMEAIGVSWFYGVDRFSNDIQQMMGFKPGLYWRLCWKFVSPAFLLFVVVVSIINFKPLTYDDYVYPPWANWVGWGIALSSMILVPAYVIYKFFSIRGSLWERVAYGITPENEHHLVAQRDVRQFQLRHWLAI
The experiment in a line: Transporter binding site inhibition in rat brain striatal and cortical membranes - norepinephrine transporter ([3H]desmethylimipramine). The following applies: vs. [3H]desmethylimipramine, read-out: NE Ki. The source says:
(§1) Transporter Binding Site Inhibition Data for Various
(§2) Ligands in Rat Brain Striatial and Cortical Membranes

For data set [2], the target named is T2, serotonin transporter (Rattus norvegicus, UniProt P31652).
T2 construct: in rat cortical and striatal homogenates; from tissue; host or cells: rat brain, striatal and cortical homogenates/membranes
T2 sequence (P31652 whole entry): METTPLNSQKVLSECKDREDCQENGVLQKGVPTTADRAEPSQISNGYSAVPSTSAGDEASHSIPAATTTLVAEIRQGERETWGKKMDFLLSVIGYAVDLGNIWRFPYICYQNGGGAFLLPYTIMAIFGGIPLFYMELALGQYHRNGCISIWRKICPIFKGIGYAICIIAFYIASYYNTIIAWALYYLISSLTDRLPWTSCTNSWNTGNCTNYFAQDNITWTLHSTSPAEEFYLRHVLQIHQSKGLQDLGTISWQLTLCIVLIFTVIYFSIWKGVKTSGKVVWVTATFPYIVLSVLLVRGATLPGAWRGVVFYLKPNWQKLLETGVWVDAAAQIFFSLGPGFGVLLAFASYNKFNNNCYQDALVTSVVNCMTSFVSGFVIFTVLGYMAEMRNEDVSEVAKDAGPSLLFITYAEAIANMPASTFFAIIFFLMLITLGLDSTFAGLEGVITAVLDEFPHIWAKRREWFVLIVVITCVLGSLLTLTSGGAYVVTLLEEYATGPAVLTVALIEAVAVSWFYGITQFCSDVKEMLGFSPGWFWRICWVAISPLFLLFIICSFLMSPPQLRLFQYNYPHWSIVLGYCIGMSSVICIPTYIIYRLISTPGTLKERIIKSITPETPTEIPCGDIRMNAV
In words: Transporter binding site inhibition in rat brain striatal and cortical membranes - serotonin transporter ([3H]citalopram). The note with it: for in vitro affinity/selectivity for the serotonin transporter: rat membranes, Table 2.
Text: as §1, §2

The next data set has as its target T3, dopamine transporter (Rattus norvegicus, UniProt P23977).
T3 construct: in rat cortical and striatal homogenates; from tissue; host or cells: rat brain, striatal and cortical homogenates/membranes
The experiment in a line: Transporter binding site inhibition in rat brain striatal and cortical membranes - dopamine transporter ([3H]WIN 35428).
Text: as §1, §2

Data set [3] concerns the target T4, human dopamine transporter (Homo sapiens, UniProt Q01959).
T4 construct: expressed in transfected cells; host or cells: MDCK (dog kidney) cells, stably transfected
In words: Binding site inhibition in MDCK cell membranes transfected with human dopamine transporter ([3H]WIN 35428). The note with it: MDCK cells, human DA transporter; vs. [3H]WIN 35428; read-out: DA Ki.

Data set [4] deals with T5, human serotonin transporter (Homo sapiens, UniProt P31645).
T5 construct: expressed in transfected cells; host or cells: HEK-293, stably transfected
T5 sequence (P31645 whole entry): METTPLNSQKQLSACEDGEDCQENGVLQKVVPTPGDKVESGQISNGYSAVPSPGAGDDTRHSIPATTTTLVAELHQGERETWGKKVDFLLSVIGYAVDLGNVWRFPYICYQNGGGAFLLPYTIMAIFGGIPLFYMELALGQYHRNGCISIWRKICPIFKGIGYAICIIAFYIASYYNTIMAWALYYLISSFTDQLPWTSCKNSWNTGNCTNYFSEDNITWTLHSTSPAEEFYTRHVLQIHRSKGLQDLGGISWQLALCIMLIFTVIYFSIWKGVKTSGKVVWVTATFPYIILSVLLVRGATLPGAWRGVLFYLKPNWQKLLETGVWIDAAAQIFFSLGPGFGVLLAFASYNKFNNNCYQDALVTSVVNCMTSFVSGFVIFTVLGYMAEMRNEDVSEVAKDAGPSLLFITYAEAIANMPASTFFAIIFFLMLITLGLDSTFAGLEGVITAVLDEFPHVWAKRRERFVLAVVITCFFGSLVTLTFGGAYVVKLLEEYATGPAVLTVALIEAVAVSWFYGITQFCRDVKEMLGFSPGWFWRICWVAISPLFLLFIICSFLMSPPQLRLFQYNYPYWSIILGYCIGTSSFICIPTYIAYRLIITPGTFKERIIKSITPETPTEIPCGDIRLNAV
The experiment in a line: Binding site inhibition in HEK-293 cell membranes transfected with human serotonin transporter ([3H]Citalopram). The note with it: for in vitro affinity/selectivity for transporter sites: human transporters, Table 3.

Data set [5] has as its target T6, human norepinephrine transporter (Homo sapiens, UniProt P23975).
T6 construct: expressed in transfected cells; host or cells: HEK-293, stably transfected
The experiment in a line: Binding site inhibition in HEK-293 cell membranes transfected with human norepinephrine transporter ([3H]Nisoxetine). The note with it: HEK-293 cells, human NE transporter; vs. [3H]Nisoxetine. An excerpt:
^2 [^3 H]Nisoxetine as reference/control for norepinephrine

The test system of data set [6] is serotonin transporter. The following applies: carbon-11 label; cited from earlier work.
Setting [7] is: rat striatal/cortical membranes, vs. [3H]citalopram, read-out: 5-HT Ki.
The mark [8] stands for this setting: rat striatal/cortical membranes, vs. [3H]WIN 35428, read-out: DA Ki.

T3 sequence (P23977 whole entry): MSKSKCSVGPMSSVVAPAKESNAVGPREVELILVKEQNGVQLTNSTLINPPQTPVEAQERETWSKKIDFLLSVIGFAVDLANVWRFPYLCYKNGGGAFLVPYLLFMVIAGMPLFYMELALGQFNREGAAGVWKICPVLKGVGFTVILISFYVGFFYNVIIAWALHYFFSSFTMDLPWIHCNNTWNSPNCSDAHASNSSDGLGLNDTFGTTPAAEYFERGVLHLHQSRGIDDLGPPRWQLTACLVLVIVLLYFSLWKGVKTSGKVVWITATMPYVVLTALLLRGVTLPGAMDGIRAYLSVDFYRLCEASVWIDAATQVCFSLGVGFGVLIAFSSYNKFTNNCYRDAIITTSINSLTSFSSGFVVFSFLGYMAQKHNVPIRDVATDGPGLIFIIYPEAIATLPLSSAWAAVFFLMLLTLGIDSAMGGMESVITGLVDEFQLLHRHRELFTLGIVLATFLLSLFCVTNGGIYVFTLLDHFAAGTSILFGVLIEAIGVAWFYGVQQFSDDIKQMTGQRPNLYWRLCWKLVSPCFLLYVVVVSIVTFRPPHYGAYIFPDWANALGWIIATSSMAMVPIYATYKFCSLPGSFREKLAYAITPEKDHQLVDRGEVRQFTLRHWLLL
T4 sequence (Q01959 whole entry): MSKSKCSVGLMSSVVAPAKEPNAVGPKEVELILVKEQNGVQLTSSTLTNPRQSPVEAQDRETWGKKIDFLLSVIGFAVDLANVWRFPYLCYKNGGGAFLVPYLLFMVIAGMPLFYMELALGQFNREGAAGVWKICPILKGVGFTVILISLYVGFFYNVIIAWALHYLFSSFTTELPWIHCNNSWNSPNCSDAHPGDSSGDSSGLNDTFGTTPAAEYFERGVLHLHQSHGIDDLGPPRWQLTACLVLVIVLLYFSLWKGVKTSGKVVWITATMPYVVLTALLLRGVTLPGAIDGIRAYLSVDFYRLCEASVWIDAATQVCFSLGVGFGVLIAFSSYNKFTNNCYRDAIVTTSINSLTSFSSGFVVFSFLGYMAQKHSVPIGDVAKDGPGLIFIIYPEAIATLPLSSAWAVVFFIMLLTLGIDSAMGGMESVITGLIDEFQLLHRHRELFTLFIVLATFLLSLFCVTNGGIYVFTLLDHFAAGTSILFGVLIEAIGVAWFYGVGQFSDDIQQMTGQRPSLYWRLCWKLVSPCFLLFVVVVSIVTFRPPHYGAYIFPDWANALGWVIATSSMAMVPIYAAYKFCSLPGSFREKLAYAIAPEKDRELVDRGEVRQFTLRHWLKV
T6 sequence (P23975 whole entry): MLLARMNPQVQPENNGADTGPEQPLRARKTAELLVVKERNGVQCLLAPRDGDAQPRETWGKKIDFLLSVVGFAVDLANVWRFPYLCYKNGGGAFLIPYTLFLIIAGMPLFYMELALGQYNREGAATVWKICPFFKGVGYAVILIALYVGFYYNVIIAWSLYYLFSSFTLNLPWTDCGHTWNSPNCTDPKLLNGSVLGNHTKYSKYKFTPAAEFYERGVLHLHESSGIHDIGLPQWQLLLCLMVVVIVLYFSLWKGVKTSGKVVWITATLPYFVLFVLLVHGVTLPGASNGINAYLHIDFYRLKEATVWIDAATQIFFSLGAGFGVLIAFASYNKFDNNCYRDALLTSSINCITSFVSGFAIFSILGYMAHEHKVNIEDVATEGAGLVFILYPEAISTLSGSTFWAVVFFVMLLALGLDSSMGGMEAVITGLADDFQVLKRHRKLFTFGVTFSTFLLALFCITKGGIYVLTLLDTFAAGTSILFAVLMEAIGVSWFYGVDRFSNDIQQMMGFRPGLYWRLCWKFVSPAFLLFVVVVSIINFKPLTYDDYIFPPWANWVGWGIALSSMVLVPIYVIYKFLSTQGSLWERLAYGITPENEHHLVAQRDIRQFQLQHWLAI

As for `Brc1ccc([C@@H]2CN3CCC[C@@H]3c3ccccc32)cc1` (relative stereo) [compound 5, trans-1,2,3,5,6,10b-hexahydro-6-[4-bromophenyl]pyrrolo-[2,1-a]isoquinoline], the Ki in data set [1] was found to be 2390 nM; at serotonin transporter [2] (setting [7]), 5.1 nM; on dopamine transporter (setting [8]) it was 9.6 nM. Besides, the “in vitro affinity/selectivity for the serotonin transporter” value at serotonin transporter [2] is “high in vitro affinity for the serotonin transporter”.
On to `Ic1ccc([C@@H]2CN3CCC[C@@H]3c3ccccc32)cc1` (relative stereo) [compound 6, trans-1,2,3,5,6,10b-hexahydro-6-[4-iodophenyl]pyrrolo-[2,1-a]isoquinoline], for which the inhibition constant (Ki) in data set [3] stood at 0.9 nM; in data set [4], 0.9 nM; in data set [1], 961 nM; on serotonin transporter [2] (setting [7]), 2.3 nM; on dopamine transporter (setting [8]) it was 14 nM; in data set [5] it was 10 nM. The “in vitro affinity/selectivity for transporter sites” value in data set [4] was “high affinity for both serotonin and dopamine transporter sites, and is selective for these two sites versus norepinephrine transporter site”. Further, the “in vitro affinity/selectivity for the serotonin transporter” value on serotonin transporter [2] is “high in vitro affinity and good selectivity for the serotonin transporter”.
With `FC/C=C\c1ccc([C@@H]2CN3CCC[C@@H]3c3ccccc32)cc1` (relative stereo) [compound 19, trans-1,2,3,5,6,10b-hexahydro-6-[4'Z-(3-fluoro-1-propenyl)phenyl]pyrrolo-[2,1-a]isoquinoline], the inhibitory constant (Ki) in data set [3] is 220 nM; in data set [4] it was 1 nM; on serotonin transporter [2], 2.8 nM; at dopamine transporter, 221 nM. Moreover, the “in vitro affinity/selectivity for transporter sites” value in data set [4] is “high selectivity and affinity for serotonin transporter sites, compared with dopamine transporter site; also recorded: more selective than McN-5652Z for the serotonin transporter site, compared to the dopamine transporter site; also recorded: very high and equal affinity for the serotonin transporter site”. For the same compound, the “in vitro affinity/selectivity for the serotonin transporter” value on serotonin transporter [2] was “high affinity for and the most selectivity for the serotonin transporter”.
Consider `[11CH3]Sc1ccc([C@H]2CN3CCC[C@H]3c3ccccc32)cc1` [Carbon-11 McN-5652Z], for which the “accumulation in brain regions” value with serotonin transporter [6] is listed as “greatest accumulation in brain regions rich in serotoninergic neurons”.

Source of the values: US6162417A, “Pyrrolo isoquinolines” (Emory University, priority 1998, dated 2000).
